In general, melting point refers to the temperature, or range, at which the solid turns liquid.

On to `CC(O)C(C)C1=C2C(C)(C)C3CCC2(C3)C(C)(C)CC1` (stereo unspecified), for which the melting point fell in the range of 119 to 121 °C.

Turning to `CO[C@H](C)C(=O)N[C@H]1CC[C@H](CCN2CCN(c3nccc4c3OCC4)CC2)CC1`, the melting point worked out at 170 °C.

Take `COc1ccc2c(c1)c1c3c(c(-c4c(Cl)cccc4Cl)cc1n2CCO)C(=O)NC3=O`: the melting point was 229 to 231 °C.

`CCOc1sc(C)nc1S(N)(=O)=O` returned a melting point of 118 to 120 °C.

The molecule `COC(=O)Nc1cccc(F)c1I` had a melting point of 80 to 82 °C.

As to `C=C1CC2(C)CC(=O)C(C)(C)C12` (stereo unspecified), the melting point is -23 to -20 °C.

For `COc1ccc(C2=NN(C3CCN(S(=O)(=O)c4ccccc4C)CC3)C(=O)C(C)(C)C2)cc1OC`, the melting point is 132 to 133 °C.

`CC(C)(C)OC(=O)/C(C#N)=C/c1cccc2ccccc12` had a melting point of 51 to 53 °C.

With `c1ccc(CN2CCN(c3nc4c(c(N5CCOCC5)n3)SCCC4)CC2)cc1`, the melting point was found to be 125 °C.

The molecule `CCOC(=O)C(N=Nc1sc(C)c(C)c1C(=O)c1ccccc1)NC(=O)CCl` (stereo unspecified) showed a melting point of 123 to 125 °C.

In the case of `CNCCn1nc2c3c(c(Cl)ccc31)C(=O)c1c(OCc3ccccc3)ccc(OCc3ccccc3)c1-2`, the melting point was 171 to 176 °C.

Consider `N#Cc1ccc(-c2ccc(S(=O)(=O)CC(CSc3ccccc3)C(=O)O)cc2)cc1` (stereo unspecified), for which the melting point fell in the range of 243 to 247 °C.

The molecule `CCOC(=O)CC(NC(=O)c1ccccc1)C(=O)c1ccco1` (stereo unspecified) displayed a melting point of 75 to 76 °C.

The molecule `CC(C)(C)CC(C)(C)c1cc(-n2nc3ccc(Sc4ccccc4)cc3n2)c(O)c(C(C)(C)c2ccccc2)c1` returned a melting point of 124 to 125 °C.

In the case of `CC(C)N(C)c1ncc([N+](=O)[O-])cc1Cl`, the melting point lay within 56 to 57 °C.

`Nc1nc(N)nc(-c2ccc3c(c2)OCCO3)n1` gave a melting point of 241 to 244 °C.

In turn, `COc1cc(COc2nn(-c3ccccc3)cc2/C=C/c2nc(C(=O)O)cs2)ccc1OCc1nc(-c2ccco2)oc1C` had a melting point of 170 to 172 °C.

In turn, `CSc1nnc(COc2cc(C(C)(C)C)c(O)c(C(C)(C)C)c2)s1` came in with a melting point of 128 to 130 °C.

On to `COc1cc2nc(N)nc(-c3ccccc3OC(F)(F)F)c2cc1OC`, for which the melting point was in the range of 235 to 237 °C.

In turn, `COc1cc(C)cc(OC)c1NC(=O)CC(C)C` displayed a melting point of 139 °C.

`Cc1onc(-c2ccc(Cl)cc2)c1CCC(=O)O` returned a melting point of 187 to 188 °C.

As for `COc1cccc(-n2c(-c3sc(NC(=O)c4ccccc4)nc3-c3ccccc3)nc3ccccc3c2=O)c1`, the melting point was in the range of 195 to 196 °C.

`CCc1cc2cc(OC)ccc2[nH]1` showed a melting point of 49 to 50 °C.

Consider `CN1C(=O)C(c2cccc(Br)c2)(c2ccc(OC(F)F)c(C3CC3)c2)N=C1N` (stereo unspecified), for which the melting point lay within 85 to 87 °C.

As for `CC(=O)NC(=Cc1cccs1)C1=NC(=Cc2cccs2)C(=O)O1`, the melting point turned out to be 218 °C.

As to `CN(C)C(=O)Nc1cc(C(C)(C)C)[nH]n1`, the melting point lay in the range of 220 to 222 °C.

For `CN(C)c1n[nH]c(-c2ccc(F)cc2)c1-c1ccncc1`, the melting point lay in the range of 245 to 247 °C.

In turn, `COc1ccc(C(=O)Nc2ccc(F)c(F)c2)cc1NS(=O)(=O)c1ccc([N+](=O)[O-])cc1` returned a melting point of 234 to 236 °C.

`CC(=O)COc1ccc(Oc2ccc(F)cc2)cc1` showed a melting point of 56 to 57 °C.

Regarding `Cc1cc(-c2cc(C(F)F)n3ncc(C(=O)Nc4cccc(S(N)(=O)=O)c4)c3n2)ccc1Cl`, the melting point came out at 264 °C.

On to `CCn1c2cc(C=O)ccc2c2c3ccccc3ccc21`, for which the melting point was in the range of 148 to 149 °C.

In turn, `CNC(=O)c1ccccc1Nc1nc(Nc2ccc3c(c2OC)CCCC(=O)N3CCOC)ncc1Cl` displayed a melting point of 205 to 207 °C.

In the case of `Fc1ccc2c(N3CCN(CCCCn4cc5ccccc5c4)CC3)csc2c1`, the melting point is 118 to 120 °C.

`CC(C)(C)OC(=O)N1COC(=O)[C@@H]1CSCc1ccccc1` displayed a melting point of 63 to 65 °C.

As for `CC(=O)ON=C(N)c1ccc(C(=O)N2CCN(C(=O)[C@@H]3CCCN3S(=O)(=O)c3ccc(Cl)c(COc4cccn5c(C)c(C)nc45)c3Cl)CC2)cc1`, the melting point is 142 to 145 °C.

`CC(C)(C)OC(=O)NCCNC(=O)c1cc([N+](=O)[O-])ccn1` registered a melting point of 130 to 131 °C.

For `O=Cc1ccc(S(=O)(=O)CCCl)cc1`, the melting point was 70 to 72 °C.

On to `O=[N+]([O-])c1cccnc1NCC(O)c1ccccc1` (stereo unspecified), for which the melting point is 101 to 103 °C.

Molecule `CC(SC1COC(c2ccc(C(=O)Nc3c(F)c(F)c(C#N)c(F)c3F)cc2)OC1)C(O)(Cn1cncn1)c1ccc(F)cc1F` (stereo unspecified) displayed a melting point of 182 °C.

`Cc1ccc2[nH]c(C(=O)OCc3ccccc3)cc2c1`: the melting point is 150 to 152 °C.

Molecule `Cc1ccc(S(=O)(=O)c2nnnn2C)cc1` registered a melting point of 110 to 111 °C.

Molecule `O=C(Nc1cccnc1)c1c(OCC2CC2)ccc2oc3ccccc3c12` came in with a melting point of 238 to 240 °C.

With `COc1cccc([C@H]2O[C@H](CC(=O)Nc3cc(C(=O)O)ccc3C)C(=O)N(CC(C)(C)CO)c3ccc(Cl)cc32)c1OC`, the melting point is 172 to 173 °C.

Molecule `COc1ccc(CN=C(Cc2ccccc2)N2CC3C(=O)CCC(c4ccccc4)(c4ccccc4)C3C2)cc1` (stereo unspecified) gave a melting point of 158 °C.

The molecule `FN(F)CC1(CN(F)F)COC1` displayed a melting point of 43.5 to 44.5 °C.

In turn, `COc1ccc(S(=O)(=O)N2C(=O)C(O[Si](C)(C)C)(c3ccccc3OC(F)(F)F)c3cc(Cl)ccc32)c(OC)c1` (stereo unspecified) gave a melting point of 181 °C.

The molecule `Cn1c(=O)c2c(ncn2CCCCCCO)n(C)c1=O` returned a melting point of 80 °C.

`N#Cc1nn(-c2c(Cl)cc(C(F)(F)F)cc2Cl)cc1-c1ccoc1` showed a melting point of 139 °C.

As for `COC(=O)NCCOc1ccc(Oc2ccc(F)cc2)cc1`, the melting point is 64 to 66 °C.

The molecule `COc1cc(NC2=NCC3(CN4CCC3CC4)O2)ncn1` (stereo unspecified) registered a melting point of 80 to 85 °C.

As to `CCCc1c(OCC(C)CC(=O)NCCCCc2cccnc2)ccc(C(C)=O)c1O` (stereo unspecified), the melting point was in the range of 58 to 60 °C.

For `CC(=O)CCc1nc2c(N)nc3ccccc3c2n1CC(C)C`, the melting point was in the range of 172 to 174 °C.

Molecule `CCOC(=O)c1cn(Cc2ccccc2)c2cc(C3CC3)nn2c1=O` registered a melting point of 160 to 165 °C.

`O=C(O)CCCCCCCCCCn1c(-c2ccccc2)c(-c2ccccc2)n(-c2ccccc2)c1=O` returned a melting point of 83 to 84 °C.

`CCN1c2ncccc2C(=O)N(C)c2ccc(OC)nc21`: the melting point was 116 to 118 °C.

Molecule `COc1cc(/C=C/C(=O)Nc2ccccc2C(=O)O)ccc1OCc1cccnc1` returned a melting point of 245 to 251 °C.

The molecule `Cc1ccc(CC2(O)CCNCC2)cc1` yielded a melting point of 118 to 121 °C.

`COC(=O)CCn1c(=O)n2n(c1=O)C(C(=O)O)C=CC2` (stereo unspecified): the melting point lay in the range of 150 to 153 °C.

As for `CCC(OC)c1cccc2nc3n(c12)CCCN3c1ccc(Cl)cc1Cl` (stereo unspecified), the melting point is 151 to 153 °C.

Molecule `CC1(O)C(O)C(CO)OC1n1ccc2c(N)ncnc21` (stereo unspecified) gave a melting point of 222 °C.

In the case of `O=C1N(CCN2CCC(c3noc4cc(F)ccc34)CC2)CCN1c1ccccc1`, the melting point is 158 to 160 °C.

For `CCc1cc(C(=O)C(c2ccc(O)cc2)c2ccc(O)cc2)cc(C(C)(c2ccc(O)cc2)c2ccc(O)cc2)c1`, the melting point lay in the range of 144 to 146 °C.

In turn, `CC1(C)C=C(c2cccnc2)c2cc(Br)ccc2OC1` returned a melting point of 116 °C.

`O=[N+]([O-])c1ccccc1S(=O)(=O)c1ccc(Cl)cc1` gave a melting point of 136 to 138 °C.

As for `CSc1cc(Oc2cccc(C(F)(F)F)c2)nc(C(=O)NN)c1`, the melting point fell in the range of 149 to 151 °C.

Consider `CCc1nccn1CCc1ccc(Nc2ncc(C#N)c(-c3ccc(C(C)(C)N)cc3)n2)cc1`, for which the melting point is 138 °C.

Turning to `Fc1ccc(-c2[nH]nc(Nc3ccccc3)c2-c2ccncc2)cc1`, the melting point lay within 218 to 219 °C.

With `CC(C)(C)OCCOc1cc(NC(=O)OC(C)(C)C)c(NC(=O)CC(=O)c2cccc(-n3ccnc3)c2)cc1C#Cc1ccc(F)cc1`, the melting point was 62 to 65 °C.

`CC(=O)NC1CCN(c2ccc(Cl)cn2)CC1`: the melting point is 196 to 198 °C.

In turn, `CCCCCCCC1(CCCCCCC)c2cc(Br)ccc2-c2ccc(Br)cc21` showed a melting point of 45 to 46 °C.

The molecule `COCC(C)(C)NC(=O)C(OC)Oc1ccc2ccc(Br)cc2c1` (stereo unspecified) had a melting point of 65 to 67 °C.

`Nc1nc(-n2cc(C(=O)O)c(=O)c3cc(F)c(F)c(Br)c32)c(F)cc1F` gave a melting point of 272 to 278 °C.

The molecule `FC(F)(F)C1(c2cc(Cl)cc(Cl)c2)CC(c2ccc(CCl)cc2)=NO1` (stereo unspecified) gave a melting point of 98 to 100 °C.

In turn, `COCc1cn2c(C)c(C)nc2c2c1C(=O)[C@H](O)[C@@H](c1ccccc1)N2` returned a melting point of 206 to 208 °C.

`Cn1ncnc1COc1nn2c(-c3ccccc3F)nncc2c1-c1cccc(-c2cccnc2)c1` yielded a melting point of 157 to 163 °C.

`COc1ccccc1P(CCCP(c1ccccc1OC)c1ccccc1OC)c1ccccc1OC` displayed a melting point of 149 to 150 °C.

`CCC(=NO)c1ccc(Oc2cc(F)cc([C@@]3(OC)CCO[C@@H]3C)c2)cc1` (racemic) yielded a melting point of 94 to 96 °C.

On to `O=C(CN1CCN(CCSc2nc3cccc(C(F)(F)F)c3o2)CC1)Nc1c(C(F)(F)F)cc(O)cc1C(F)(F)F`, for which the melting point lay within 176 to 177 °C.

`CON=C(C(=O)OC)C1=C(C(=O)c2ccc(F)cc2)CC(C)=C(C)C1`: the melting point is 97 to 98 °C.

In turn, `COc1ccccc1N1CCN(CCNc2ccccc2C(C)=O)CC1` displayed a melting point of 92 to 94 °C.

`COc1cc(-c2ccccn2)cc([N+](=O)[O-])c1OC`: the melting point fell in the range of 89 to 90 °C.

For `CCCC1C(O)=CC(=O)N1c1ccc(C#N)c(Cl)c1` (stereo unspecified), the melting point lay in the range of 156 to 158 °C.

In turn, `CCOC(=O)c1nc2ccc(N)cc2c(=O)[nH]1` came in with a melting point of 233 to 235 °C.

`Cc1ccc(NC(=O)c2ccc(C(=O)Nc3ccccc3N)nc2)cc1Nc1nccc(-c2cccnc2)n1` gave a melting point of 150 to 152 °C.

With `O=P(c1ccccc1)(c1ccccc1)c1cc(O)ccc1O`, the melting point lay in the range of 216 to 218 °C.

`CCOC(=O)C=Cc1ccc(OC)c(OC)c1` yielded a melting point of 53 to 55 °C.
